For eleven molecules, CC50 and EC50 results are on record in patent US7960387B2, “2-(3-phenyl-2-piperazinyl-3,4-dihydroquinazolin-4-yl)acetic acids as antiviral agents, especially against cytomegaloviruses” (Bayer Schering Pharma Aktiengesellschaft, priority 2003, dated 2011).

Where a name gives a salt, the structure may show the parent alone. Read-outs that look alike come from different tables or passages of the source.

Data set [1] in a line: Anti-HCMV cytopathogenicity test: cytostatic effects on NHDF cells. Format: cell-based. The conditions noted are these: NHDF cells (human prepuce fibroblasts), 6 days incubation, visual assessment, concentration at which no visible cytostatic effects are evident vs untreated cell control. As for the experimental part:
(§1) Anti-HCMV (Anti-Human Cytomegalovirus) Cytopathogenicity Tests The test compounds are employed as 50 millimolar (mM) solutions in dimethyl sulphoxide (DMSO). Ganciclovir®, Foscarnet® and Cidofovir® are used as reference compounds. After addition of in each case 2 μl of the 50, 5, 0.5 and 0.05 mM DMSO stock solutions to 98 μl portions of cell culture medium in row […] for duplicate determinations, 1:2 dilutions are carried out with 50 μl portions of medium up to row 11 of the 96-well plate. The wells in rows 1 and 12 each contain 50 μl of medium. In 150 μl of a suspension of 1×10^4 cells (human prepuce fibroblasts [NHDF]) are pipetted into each of the wells (row 1=cell control) and, in rows 2-12, a mixture of HCMV-infected and uninfected NHDF cells (M.O.I.=0.001-0.002), i.e. 1-2 infected cells per 1000 uninfected cells. Row 12 (without substance) serves as virus control. The final test concentrations are 250-0.0005 μM. The plates are incubated at 37° C./5% CO2 for 6 days, i.e. until all the cells are infected in the virus controls (100% cytopathogenic effect [CPE]). The wells are then fixed and stained by adding a mixture of formalin and Giemsa's dye (30 minutes), washed with double-distilled water and dried in a drying oven at 50° C. The plates are then assessed visually using an overhead microscope (Plaque Multiplier from Technomara). The following data can be acquired from the test plates: • CC50 (NHDF)=substance concentration in μM at which no visible cytostatic effects on the cells are evident by comparison with the untreated cell control; • EC50 (HCMV)=substance concentration in μM which inhibits the CPE (cytopathic effect) by 50% compared with the untreated virus control; • SI (selectivity index)=CC50 (NHDF)/EC50 (HCMV).
Background: Damage to the host cells serves as the signal in cytopathic effect assays.

The next data set concerns HCMV. As to the kind of experiment: Anti-HCMV cytopathogenicity test. Format: cell-based, human cytomegalovirus. The settings on record: read-out: HCMV EC50. Here is the method:
as §1

[2] abbreviates: Human betaherpesvirus 5, 144 h, HCMV-infected NHDF cells, M.O.I. 0.001-0.002, 6 days, 50% inhibition of CPE vs untreated virus control.

`Cc1cc(N2CCN(C3=Nc4ccccc4C(CC(=O)O)N3c3cccc(C(F)(F)F)c3)CC2)ccc1F` (stereo not shown) [Example 1, {2-[4-(4-Fluoro-3-methylphenyl)-1-piperazinyl]-3-[3-(trifluoromethyl)phenyl]-3,4-dihydro-4-quinazolinyl}acetic acid] registered a CC50 at 6 days in data set [1] of 17 µM. In the data set with HCMV (setting [2]), the EC50 was found to be 0.027 µM.
On to `O=C(O)CC1c2ccccc2N=C(N2CCN(c3ccc(F)cc3)CC2)N1c1cc(C(F)(F)F)ccc1F` (stereo not shown) [Example 2, {2-[4-(4-Fluorophenyl)-1-piperazinyl]-3-[2-fluoro-5-(trifluoromethyl)phenyl]-3,4-dihydro-4-quinazolinyl}acetic acid hydrochloride], for which half-maximal cytotoxicity in data set [1] (CC50 at 6 days) was put at 39 µM. Besides, the EC50 in the data set on HCMV (Human betaherpesvirus 5, NHDF, 144 h) was 0.06 µM.
In data set [1], `Cc1cc(Cl)ccc1N1C(N2CCN(c3cccc(Cl)c3)CC2)=Nc2ccccc2C1CC(=O)O` (stereo not shown) [Example 6, {2-[4-(3-Chlorophenyl)-1-piperazinyl]-3-[4-chloro-2-methylphenyl]-3,4-dihydro-4-quinazolinyl}acetic acid] showed a cytotoxic concentration (CC50) at 6 days of 22 µM. In addition, in the data set with HCMV (setting [2]), the EC50 came to 0.4 µM.
The molecule `O=C(O)CC1c2ccccc2N=C(N2CCN(c3cccc(Cl)c3)CC2)N1c1ccc(F)c(Cl)c1` (stereo not shown) [Example 19] returned a CC50 at 6 days in data set [1] of 24 µM. Besides, the EC50 in the data set with HCMV (setting [2]) is 0.4 µM.
Molecule `COc1cccc(N2CCN(C3=Nc4ccccc4C(CC(=O)O)N3c3cccc(C#N)c3)CC2)c1` (stereo not shown) [Example 23] came in with a CC50 at 6 days in data set [1] of 188 µM. Besides, the EC50 in the data set on HCMV (setting [2]) worked out at 0.76 µM.
Take `COc1ccc(C(F)(F)F)cc1N1C(N2CCN(c3cccc(Cl)c3)CC2)=Nc2ccccc2C1CC(=O)O` (stereo not shown) [Example 26, {2-[4-(3-Chlorophenyl)-1-piperazinyl]-3-[2-methoxy-5-(trifluoromethyl)phenyl]-3,4-dihydro-4-quinazolinyl)acetic acid]: the CC50 at 6 days in data set [1] stood at 31 µM. Further, the EC50 in the data set on HCMV (setting [2]) was found to be 0.019 µM.
In data set [1], `COc1ccc(C(F)(F)F)cc1N1C(N2CCN(c3cccc(C)c3)CC2)=Nc2ccccc2C1CC(=O)O` (stereo not shown) [Example 27, {2-[4-(3-Methylphenyl)-1-piperazinyl]-3-[2-methoxy-5-(trifluoromethyl)phenyl]-3,4-dihydro-4-quinazolinyl}acetic acid] gave a CC50 at 6 days of 188 µM. Moreover, the EC50 in the data set with HCMV (setting [2]) came to 0.13 µM.
`COc1cccc(N2CCN(C3=Nc4ccccc4C(CC(=O)O)N3c3cc(Cl)ccc3OC)CC2)c1` (stereo not shown) [Example 28, {2-[4-(3-Methoxyphenyl)-1-piperazinyl]-3-[2-methoxy-5-chlorophenyl]-3,4-dihydro-4-quinazolinyl]acetic acid] came in with a CC50 at 6 days in data set [1] of 63 µM. In addition, the EC50 with HCMV (setting [2]) amounted to 0.025 µM.
The molecule `COc1ccc(Cl)cc1N1C(N2CCN(c3ccc(F)cc3)CC2)=Nc2ccccc2C1CC(=O)O` (stereo not shown) [Example 29, {2-[4-(4-Fluorophenyl)-1-piperazinyl]-3-[2-methoxy-5-chlorophenyl]-3,4-dihydro-4-quinazolinyl}acetic acid] returned a CC50 at 6 days in data set [1] of 125 µM. Also, the EC50 with HCMV (setting [2]) is 0.07 µM.
In the same order, the values of `COc1ccc(C)cc1N1C(N2CCN(c3cccc(C)c3)CC2)=Nc2ccccc2C1CC(=O)O` (stereo not shown) [Example 30, {2-[4-(3-Methylpheny)-1-piperazinyl]-3-[2-methoxy-5-methylphenyl]-3,4-dihydro-4-quinazolinyl}acetic acid] are 250 µM and 0.25 µM.
`COc1ccc(C)cc1N1C(N2CCN(c3cccc(Cl)c3)CC2)=Nc2ccccc2C1CC(=O)O` (stereo not shown) [Example 31, {2-[4-(3-Chlorophenyl)-1-piperazinyl]-3-[2-methoxy-5-methylphenyl]-3,4-dihydro-4-quinazolinyl}acetic acid] returned a CC50 at 6 days in data set [1] of 63 µM. Moreover, in the data set on HCMV (setting [2]), the EC50 worked out at 0.14 µM.

For orientation: CC50 means the concentration that lowers cell viability or growth by half. High values mean lower toxicity to the cells, low ones greater toxicity to the cells. By EC50 is commonly meant the concentration at which the effect is half-maximal.
